Results published in patent US20030199526A1, “Pyrimidine-based compounds useful as GSK-3 inhibitors” (priority 2001, published 2003).

Target: T1, GSK-3β (AA 1-420) (Homo sapiens, UniProt P49841)
T1 construct: GSK-3β (AA 1-420)
Assay: Ki determination for the inhibition of GSK-3 (coupled enzyme system)
Format: biochemical
Conditions: 20 μM ATP, 300 μM peptide, 20 nM GSK-3β, 30° C.
Method: Compounds were screened for their ability to inhibit GSK-3β (AA 1-420) activity using a standard coupled enzyme system [Fox et al. Protein Sci. 7, 2249 (1998)]. Reactions were carried out in a solution containing 100 mM HEPES (pH 7.5), 10 mM MgCl2, 25 mM NaCl, 300 μM NADH, 1 mM DTT and 1.5% DMSO. Final substrate concentrations in the assay were 20 μM ATP (Sigma Chemicals, St Louis, Mo.) and 300 μM peptide (American Peptide, Sunnyvale, Calif.). Reactions were carried out at 30° C. and 20 nM GSK-3β. Final concentrations of the components of the coupled enzyme system were 2.5 mM phosphoenolpyruvate, 300 μM NADH, 30 μg/ml pyruvate kinase and 10 μg/ml lactate dehydrogenase.
An assay stock buffer solution was prepared containing all of the reagents listed above with the exception of ATP and the test compound of interest. The assay stock buffer solution (175 μl) was incubated in a 96 well plate with 5 μl of the test compound of interest at final concentrations spanning 0.002 μM to 30 μM at 30° C. for 10 min. Typically, a 12 point titration was conducted by preparing serial dilutions (from 10 mM compound stocks) with DMSO of the test compounds in daughter plates. The reaction was initiated by the addition of 20 μl of ATP (final concentration 20 μM). Rates of reaction were obtained using a Molecular Devices Spectramax plate reader (Sunnyvale, Calif.) over 10 min at 30° C. The Ki values were determined from the rate data as a function of inhibitor concentration.

T1 sequence (P49841 whole entry, species assumed, the tested form may be a part): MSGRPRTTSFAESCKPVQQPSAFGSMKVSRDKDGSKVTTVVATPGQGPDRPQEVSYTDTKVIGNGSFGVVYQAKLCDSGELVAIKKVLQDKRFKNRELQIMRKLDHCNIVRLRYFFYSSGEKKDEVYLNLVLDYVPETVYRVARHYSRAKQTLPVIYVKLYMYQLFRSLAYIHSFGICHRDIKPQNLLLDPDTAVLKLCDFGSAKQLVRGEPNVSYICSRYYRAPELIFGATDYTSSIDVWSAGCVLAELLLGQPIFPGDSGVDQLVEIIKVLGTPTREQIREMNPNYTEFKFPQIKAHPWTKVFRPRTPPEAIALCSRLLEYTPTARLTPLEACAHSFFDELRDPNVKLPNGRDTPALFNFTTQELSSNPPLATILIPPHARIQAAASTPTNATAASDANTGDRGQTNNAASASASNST

Ki, < 100 nM:
N#Cc1ccc(NCCNc2nc(-c3ccc(Cl)cc3Cl)nc3ccccc23)nc1 [Compound I-1, 6-{2-[2-(2,4-Dichloro-phenyl)-quinazolin-4-ylamino]-ethylamino}-nicotinonitrile]
N#Cc1ccc(NCCNc2nc(-c3ccc(Cl)cc3)nc3ccccc23)nc1 [Compound I-2]
N#Cc1ccc(NCCNc2nc(-c3ccccc3C(F)(F)F)nc3ccccc23)nc1 [Compound I-8, 6-{2-[2-(Trifluoromethyl-phenyl)-quinazolin-4-ylamino]-ethylamino}-nicotinonitrile]
N#Cc1ccc(NCCNc2nc(-c3ccccc3)nc3ccccc23)nc1 [Compound I-9, 6-[2-(2-Phenyl-quinazolin-4-ylamino)-ethylamino]-nicotinonitrile]
N#Cc1ccc(NCCNc2nc(-c3ccccc3Cl)nc3ccccc23)nc1 [Compound I-11, 6-{2-[2-(2-Chloro-phenyl)-quinazolin-4-ylamino]-ethylamino}-nicotinonitrile]
N#Cc1ccc(-c2nc(NCCNc3ccc(C#N)cn3)c3ccccc3n2)cc1 [Compound I-19, 6-{2-[2-(4-Cyano-phenyl)-quinazolin-4-ylamino]-ethylamino}-nicotinonitrile]
N#Cc1ccc(NCCNc2nc(-c3ccc(Cl)cc3Cl)nc3ccccc23)cc1 [Compound I-62, 4-{2-[2-(2,4-Dichloro-phenyl)-quinazolin-4-ylamino]-ethylamino}-benzonitrile]
N#Cc1ccc(NCCNc2nc(-c3ccccc3Cl)nc3cccnc23)nc1 [Compound I-118, 6-{2-[2-(2-Chloro-phenyl)-pyrido[3,2-d]pyrimidin-4-ylamino]-ethylamino}-nicotinonitrile]
COc1ccccc1-c1nc(NCCNc2ccc(C#N)cn2)c2ccccc2n1 [Compound I-188, 6-{2-[2-(2-Methoxy-phenyl)-quinazolin-4-ylamino]-ethylamino}-nicotinonitrile]
N#Cc1ccc(NCCNc2nc(-c3ccccc3O)nc3ccccc23)nc1 [Compound I-189, 6-{2-[2-(2-Hydroxy-phenyl)-quinazolin-4-ylamino]-ethylamino}-nicotinonitrile]
N#Cc1ccc(NCCNc2nc(-c3ccccc3F)nc3ccccc23)nc1 [Compound I-190, 6-{2-[2-(2-Fluoro-phenyl)-quinazolin-4-ylamino]-ethylamino}-nicotinonitrile]
N#Cc1ccc(NCCNc2nc(-c3ccc(F)cc3F)nc3ccccc23)nc1 [Compound I-191, 6-{2-[2-(2,4-Difluoro-phenyl)-quinazolin-4-ylamino]-ethylamino}-nicotinonitrile]
N#Cc1ccc(NCCNc2nc(-c3cc(Cl)ccc3-c3ccccc3)nc3ccccc23)nc1 [Compound I-195, 6-{2-[2-(4-Chloro-biphenyl-2-yl)-quinazolin-4-ylamino]-ethylamino}-nicotinonitrile]
Cc1nc(-c2ccccc2C(F)(F)F)nc(NCCNc2ccc(C#N)cn2)c1C [Compound I-197, 6-{2-[5,6-Dimethyl-2-(2-trifluoromethyl-phenyl)-pyrimidin-4-ylamino]-ethylamino}-nicotinonitrile]
Cc1nc(-c2ccc(Cl)cc2Cl)nc(NCCNc2ccc(C#N)cn2)c1C [Compound I-198, 6-{2-[2-(2,4-Dichloro-phenyl)-5,6-dimethyl-pyrimidin-4-ylamino]-ethylamino}-nicotinonitrile]
Cc1nc(-c2ccccc2Cl)nc(NCCNc2ccc(C#N)cn2)c1C [Compound I-200]
